Test results: patent US6060043A, “Deodorant composition containing D-amino acid” (The Gillette Company, priority 1998, dated 2000)
≈ marks a conversion by molar mass, not a printed value.

Key:
[1] = system: axillary malodor; experiment: Example 6: axillary malodor evaluation by odor judges, 1.0% β-chloro-D-alanine vs 1.0% β-chloro-L-alanine; assay type: in vivo, human; parameters: key to 24 Hour Drop from Control / A-B (drop), D-BCA minus L-BCA: drop in odor score on 0 (no odor) to 10 (very intense) scale; conditions: 1.0% in 60% propylene glycol/40% water
Procedure: (§1) BCA was dissolved in a mixture of 60% propylene glycol and 40% water at a final concentration of 1.0%. The pH of the solution was adjusted to about 6.25 with 10 N NaOH. Thirty-nine female panelists applied 0.5 ml of this test solution to either the right or left axilla and 0.5 ml of a comparative solution of 60% propylene glycol and 40% water to the other. The side of application of the test or comparative solutions was assigned in a random fashion. Twenty-four hours after application, each side of the panelists' axilla was judged for odor by a panel of trained odor judges on a scale of 0 (no odor) to 10 (very intense, disagreeable odor). This procedure was performed on four consecutive days. […] Analysis of the clinical results is summarized below:
A test product containing 1.0% β-chloro-D-alanine (BCA)[…] in 60% propylene glycol/40% water was compared to a comparative product containing 1.0% β-chloro-L-alanine in 60% propylene glycol/40% water by application to 50 female test subjects according to the procedure of Example 4.

[2] = target: T1, serine-palmitoyl transferase (Mus musculus, UniProt P97363); conditions: topical application; Holleran et al. 1991; cited from earlier work
T1 construct: host or cells: skin, in vivo after topical application
T1 sequence (P97363 1-560): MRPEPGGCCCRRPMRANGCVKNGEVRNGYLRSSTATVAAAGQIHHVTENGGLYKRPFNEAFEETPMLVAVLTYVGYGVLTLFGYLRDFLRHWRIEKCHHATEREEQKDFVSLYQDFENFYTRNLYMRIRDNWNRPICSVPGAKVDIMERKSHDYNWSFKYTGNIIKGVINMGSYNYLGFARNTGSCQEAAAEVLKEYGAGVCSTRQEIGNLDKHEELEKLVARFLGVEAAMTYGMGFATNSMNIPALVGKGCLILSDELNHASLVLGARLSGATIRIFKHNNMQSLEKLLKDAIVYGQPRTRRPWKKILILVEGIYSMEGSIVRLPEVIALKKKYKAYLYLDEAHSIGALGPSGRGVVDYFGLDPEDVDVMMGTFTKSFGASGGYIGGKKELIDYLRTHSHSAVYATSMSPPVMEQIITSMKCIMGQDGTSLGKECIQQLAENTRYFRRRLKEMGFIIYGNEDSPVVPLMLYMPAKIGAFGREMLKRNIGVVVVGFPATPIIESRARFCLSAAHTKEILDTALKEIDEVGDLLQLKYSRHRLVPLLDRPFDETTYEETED
T1 sequence (O35704 1-473 partner): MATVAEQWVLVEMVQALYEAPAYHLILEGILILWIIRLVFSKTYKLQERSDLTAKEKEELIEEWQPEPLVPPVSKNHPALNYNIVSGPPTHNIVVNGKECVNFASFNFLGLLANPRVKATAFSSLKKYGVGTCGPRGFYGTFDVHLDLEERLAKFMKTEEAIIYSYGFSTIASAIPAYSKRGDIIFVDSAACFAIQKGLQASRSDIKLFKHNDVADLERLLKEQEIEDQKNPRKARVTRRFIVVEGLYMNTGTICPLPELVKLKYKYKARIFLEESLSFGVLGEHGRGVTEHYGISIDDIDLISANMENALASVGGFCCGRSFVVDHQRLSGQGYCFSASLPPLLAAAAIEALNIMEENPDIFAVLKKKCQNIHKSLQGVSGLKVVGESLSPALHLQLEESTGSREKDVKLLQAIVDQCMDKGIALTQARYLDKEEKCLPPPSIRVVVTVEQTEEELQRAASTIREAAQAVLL

[3] = topical application; Holleran et al. 1991; cited from earlier work
[4] = system: Staphylococcus cells; conditions: as disclosed in U.S. Pat. No. 5,487,886; cited from earlier work
[5] = Test of antimicrobial materials for deodorant activity; conditions: compared with currently available materials
Source text: Cosmetic Chemists, 19, 611-626 (1968) and Cowen, "Relative Merits of `In Use` and Laboratory Methods for the Evaluation of Antimicrobial Products, "J. Soc. Cosmetic Chemists, 25, 307-323 (1974).

[6] = system: β-lyase; experiment: Sniff vial test: malodor formation from precursors by whole Staphylococcus haemolyticus cells (beta-lyase inhibition); assay type: cell-based; conditions: whole Staphylococcus haemolyticus cells, sniff vial assay
Procedure: BCA was tested for its ability to prevent Staphylococcus haemolyticus from metabolizing sweat to form malodor. Log-phase cultures of Staphylococcus haemolyticus were incubated with various concentrations of BCA (31-0.625 mM) in phosphate buffer (pH 6.8) for 30 minutes at 35° C. The cell/BCA mixture was then added to a "sniff vial" containing malodor precursors and incubated at 35° C. for an additional 30 minutes. Malodor compounds were then extracted from the mixture with chloroform and malodor was judged by spotting 10 μl of chloroform extracts onto bibulous paper and smelling. […] In contrast, the β-lyase inhibitor aminooxyacetic acid (AOA) consistently prevents malodor in the above assay at concentrations of 5.0 mM.

[7] = system: Staphylococcus haemolyticus; experiment: Minimum inhibitory concentration (MIC) in axillary bacteria, Staphylococcus strain; assay type: cell-based; conditions: overnight at 35° C., lowest concentration without turbidity, read-out: MIC
Procedure: (§2) In vitro experiments were conducted in order to determine the ability of several bacterial cell wall synthesis inhibitors to inhibit the growth of axillary bacteria. The minimum inhibitory concentrations (MIC) of β-chloro-D-alanine (BCA), and D-cycloserine were determined in Staphylococcus (Staphylococcus haemolyticus) and Coryneform strains of axillary bacteria as follows: Frozen stock cultures were thawed out and 50 μl of Staphylococcus haemolyticus or 100 μl of Coryneform bacteria were inoculated into 5.0 ml of nutrient media. Bacteria were incubated at 35° C. overnight to produce cultures in log phase growth. A series of tubes was set up into which serial dilutions of BCA or triclosan in nutrient media were added in the range of 0.1 to 0.0001 wt/v % (where 1 g/100 ml=1 wt/v %). The tubes were inoculated with 50 μl of log phase Staphylococcus haemolyticus or Coryneform cultures and incubated at 35° C. overnight. […] The minimum bactericidal concentration (MBC) was determined by adding 50 μl from each clear solution of the MIC experiment into 5.0 ml of fresh nutrient media and incubating overnight at 37° C. […] The MIC of BCA was thus determined to be 0.1 wt/v % and 0.001 wt/v % in Staphylococcus haemolyticus and Coryneforms, respectively. The MIC of D-cycloserine was thus determined to be 0.01 wt/v % and 0.005 wt/v % in Staphylococcus haemolyticus and Coryneforms, respectively. By comparison, the MIC of the common antibacterial deodorant compound triclosan is 0.01 wt/v % and 0.1 wt/v % in Staphylococcus haemolyticus and Coryneforms, respectively.

[8] = system: Coryneform bacteria; experiment: Minimum inhibitory concentration (MIC) in axillary bacteria, Coryneform strain; assay type: cell-based, Coryneform strains of axillary bacteria; conditions: Coryneforms; overnight at 35° C.; lowest concentration without turbidity; read-out: MIC
Procedure: as §2

[9] = system: axillary malodor; experiment: Example 5: axillary malodor evaluation by odor judges, 1.0% D-cycloserine vs 0.3% triclosan; assay type: in vivo, human; parameters: key to Post-Application 24 Hour Drop from Control: drop in odor score vs control; scale 0 (no odor) to 10 (very intense); conditions: for Post-Application 24 Hour Drop from Control / Judges' Malodor Evaluation (score): 1.0% D-cycloserine, 0.3% triclosan; for Judges' Malodor Evaluation (score): scale 0 to 10
Procedure: as §1
A test product containing 1.0% D-cycloserine in 60% propylene glycol/40% water was compared to a product containing 0.3% triclosan in 60% propylene glycol/40% water by application to 60 test subjects according to the procedure of Example 4. […] All differences were highly significant.

With `N[C@@H](CCl)C(=O)O` [β-chloro-L-alanine, reference compound] the “24 Hour Drop from Control” value ([1]; composite) was 1.083, the “24 Hour Drop from Control” value ([1]; post-application measurement 1) was 0.913 and the “24 Hour Drop from Control” value ([1]; post-application measurement 2) was 1.040. For the same molecule, the “24 Hour Drop from Control” value ([1]; post-application measurement 3) was 1.013, the “24 Hour Drop from Control” value ([1]; post-application measurement 4) was 1.333 and the “Inhibition of serine-palmitoyl transferase in the skin” value [2] was “irreversibly inhibits”. The “Recovery of skin barrier function in vivo” value [3] was “alters recovery of skin barrier function”.

In the case of `NC1CONC1=O` [L-cycloserine], the “Effect on the growth of Staphylococcus cells in culture” value [4] is listed as “no inhibitory effect”.

In the case of `CCCCCCCCCCCCCCCCCC[N+](C)(C)CCC[Si](OC)(OC)OC.[Cl-]` [3-(trimethoxysilyl)propyloctadecyldimethyl ammonium chloride], the Deodorant activity [5] is reported as “no improvement over currently available materials was observed”.

In the case of `NOCC(=O)O` [AOA, aminooxyacetic acid, reference compound], the “Concentration that consistently prevents malodor” value [6] is reported as 5.0 mM.

With `CC(=O)OCC(COC(C)=O)OC(C)=O` [triacetin] the Deodorant activity [5] was “no improvement over currently available materials was observed”.

In the case of `NC1CONC1=O` [D-cycloserine], the MIC [7] is reported as 100 µg/mL (≈ 979 µM), the MIC [8] is reported as 50 µg/mL (≈ 490 µM) and the “Inhibition of axillary malodor, 1.0% D-cycloserine product versus 0.3% triclosan” value ([9]; all measurements and the composite, odor judges) is reported as “superior to 0.3% triclosan”. For the same molecule, the “Post-Application 24 Hour Drop from Control” value (“Post-Application 24 Hour Drop” for short) ([9]; composite) was 1.13, the “Judges' Malodor Evaluation (score)” value ([9]; composite) was 3.61 and the “Post-Application 24 Hour Drop” value ([9]; measurement day 1) was 1.1. The “Judges' Malodor Evaluation (score)” value ([9]; measurement day 1) was 3.64, the “Post-Application 24 Hour Drop” value ([9]; measurement day 2) was 0.99 and the “Judges' Malodor Evaluation (score)” value ([9]; measurement day 2) was 3.75. The “Post-Application 24 Hour Drop” value ([9]; measurement day 3) was 1.22, the “Judges' Malodor Evaluation (score)” value ([9]; measurement day 3) was 3.53 and the “Post-Application 24 Hour Drop” value ([9]; measurement day 4) was 1.22. The “Judges' Malodor Evaluation (score)” value ([9]; measurement day 4) was 3.52.

In the case of `Oc1cc(Cl)ccc1Oc1ccc(Cl)cc1Cl` [triclosan, reference compound], the MIC [7] is reported as 100 µg/mL (≈ 345 µM), the MIC [8] is reported as 1000 µg/mL (≈ 3450 µM) and the “Post-Application 24 Hour Drop” value ([9]; composite) is reported as 0.65. For the same molecule, the “Judges' Malodor Evaluation (score)” value ([9]; composite) was 4.07, the “Post-Application 24 Hour Drop” value ([9]; measurement day 1) was 0.67 and the “Judges' Malodor Evaluation (score)” value ([9]; measurement day 1) was 4. The “Post-Application 24 Hour Drop” value ([9]; measurement day 2) was 0.46, the “Judges' Malodor Evaluation (score)” value ([9]; measurement day 2) was 4.26 and the “Post-Application 24 Hour Drop” value ([9]; measurement day 3) was 0.74. The “Judges' Malodor Evaluation (score)” value ([9]; measurement day 3) was 3.97, the “Post-Application 24 Hour Drop” value ([9]; measurement day 4) was 0.72 and the “Judges' Malodor Evaluation (score)” value ([9]; measurement day 4) was 4.

In the case of `[H]/N=C(\N/C(=N/[H])NCCCCCCNC(=N)NC(=N)Nc1ccc(Cl)cc1)Nc1ccc(Cl)cc1` [chlorhexidine], the Deodorant activity [5] is reported as “no improvement over currently available materials was observed”.

In the case of `OO` [hydrogen peroxide], the Deodorant activity [5] is reported as “no improvement over currently available materials was observed”.
